{"source": "patent US8129398B2", "about": "(priority 2008, dated 2012)", "key": {"[1]": {"target": "T1, HIV-integrase (Human immunodeficiency virus type 1 group M subtype B, UniProt P12497)", "T1 construct": "Recombinant integrase (0.26 ng) was incubated with the beads", "test": "HIV-Integrase Inhibition Activity (SPA bead integration assay with P33 labeled target DNA)", "format": "biochemical", "conditions": "for pIC50: recombinant integrase, class symbols, read-out: in vitro activity", "in_short": "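Biotinylated substrate DNA on streptavidin SPA beads loaded with recombinant integrase (90 min, 37° C), washed, then inhibitor plus 0.1 fmol P33-labeled target DNA added. Reaction stopped with 10 mM EDTA; integration measured as CPM by scintillation, giving IC50 ranks.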"}, "[2]": {"test_system": "recombinant NL-Rluc virus", "test": "Inhibition of HIV replication (recombinant NL-Rluc virus, Renilla luciferase reporter)", "format": "cell-based"}}, "note": "pEC50, pIC50, pKi: −log10 of the molar value. Like-named read-outs stand apart in the source and are kept apart here.", "data": [{"smiles": "CC(=O)NC12CCC(CC1)Cn1c2nc(C(=O)NCc2ccc(F)cc2-n2ncnc2C)c(O)c1=O", "note": "[Example 38, 10-(Acetylamino)-N-(4-fluoro-2-(5-methyl-1H-1,2,4-triazol-1-yl)benzyl)-3-hydroxy-4-oxo-4,6,7,8,9,10-hexahydro-7,10-ethanopyrimido[1,2-a]azepine-2-carboxamide]", "values": [{"measurement": "pIC50", "setting": "[1]", "result": "> 8.00"}, {"measurement": "pKi", "setting": "[1]; representative compounds", "result": 8.05}, {"measurement": "pEC50", "setting": "[2]; Human immunodeficiency virus 1", "result": 7.43}]}, {"smiles": "CN(C)C(=O)C(=O)NC12CCC(CCn3c1nc(C(=O)NCc1ccc(F)cc1)c(O)c3=O)C2", "note": "(single isomer, unassigned) [Example 414, Ethanediamide, N′-[2-[[[(4-fluorophenyl)methyl]amino]carbonyl]-7,8,9,10-tetrahydro-3-hydroxy-4-oxo-8,11-methano-4H-pyrimido[1,2-a]azocin-11(6H)-yl]-N,N-dimethyl-]", "values": [{"measurement": "pIC50", "setting": "[1]", "result": "> 8.00"}, {"measurement": "pEC50", "setting": "[2]; read-out: Antiviral activity, NL-Rluc virus, serum condition not specified (10% FBS, 15 mg/ml human serum albumin/10% FBS or 40% human serum/5% FBS), class symbols", "result": "> 8.00"}]}]}
